Experiments:
[1] = solubility in different solvents; type: physicochemical; settings: in solvents such as isopropanol, acetone, chloroform, 2-phenylethanol and Triton-X100
Experimental: Numerous studies were conducted in order to obtain optimum compositions of the active agent in which an improvement of solubility and, a prevention of the formation of crystals is achieved. […] Therefore, the carriers must be non-toxic, non-carcinogenic and skin compatible and, furthermore, should be odour neutral. Moreover, these carriers, e.g. solvents or emulsifiers, should be compatible with the major part of the topical composition, i.e. an aqueous phase or an oil phase, and should not form a separate phase or lead to the precipitation of the active agent.

[2] = stability of ethanolic solutions of the active agent; type: physicochemical
Description: During investigations regarding the solubility of, in particular, 2-hydroxy-5-methyl-laurophenone oxime, solutions could be prepared which are stable after 4 days at room temperature under the exclusion of UV light. These solutions were ethanolic solutions of the active agent which included further components such as 0.8/1.0 and 2.0% PEG600 or PEG6000. The active agent was present in these solutions in an amount of 10 wt. %. […] These solutions can be incorporated into water in order to prepare topical formulations.

Substance: 2-hydroxy-5-methyl-laurophenone oxime
- solubility [1]: good solubility
- formation of crystals ([2]; ethanolic PEG solutions, amount of active agent increased above 10 wt. %): formation of crystals was observed
- stability of solution ([2]; ethanolic solutions with 0.8/1.0 and 2.0% PEG600 or PEG6000, active agent 10 wt. %, 4 days at room temperature under exclusion of UV light): stable
- formation of crystals ([2]; solution of the active agent incorporated into water at 10 to 20 wt. % of the formulation): in some cases the formation of crystals

From patent US20030176470A1, “Topical composition containing at least one aryl oxime, and method for the preparation thereof” (priority 2000, published 2003)
